Experimental data as given in publication PMC6237811, “MutT homologue 1 (MTH1) catalyzes the hydrolysis of mutagenic O6-methyl-dGTP” (Nucleic Acids Research, 2018).

Tests used:
Type in all cases: biochemical
[1] = target: T1, human MTH1 (hMTH1, NUDT1) (Homo sapiens, UniProt P36639); assay: Michaelis-Menten kinetics of hydrolysis by purified MTH1 (PPiLight)
[2] = target: Arabidopsis thaliana NUDT1 (atNUDT1, atNUDX1) (Arabidopsis thaliana, UniProt Q9CA40); assay: hydrolysis by […] purified enzyme, PPiLight assay, […] substrate
[3] = target: T2, rat MTH1 (rnMTH1, rnNUDT1) (Rattus norvegicus, UniProt P53369); assay: as above
T2 construct: gene Nudt1

[4] = target: T3, mouse MTH1 (mmMTH1, mmNUDT1) (Mus musculus, UniProt P53368); assay: as above
T3 construct: gene Nudt1

zebrafish MTH1 (zfMTH1) = target: T4, zebrafish MTH1 (zfMTH1) (Danio rerio, UniProt Q7ZWC3); assay: hydrolysis by purified zfMTH1, malachite green and PPiLight assays
T4 construct: gene nudt1

[5] = target: T1, human MTH1 (hMTH1, NUDT1); assay: Michaelis-Menten kinetics of hydrolysis by purified MTH1 (PPiLight); HPLC and LC-MS of product

T4 sequence (Q7ZWC3 whole entry): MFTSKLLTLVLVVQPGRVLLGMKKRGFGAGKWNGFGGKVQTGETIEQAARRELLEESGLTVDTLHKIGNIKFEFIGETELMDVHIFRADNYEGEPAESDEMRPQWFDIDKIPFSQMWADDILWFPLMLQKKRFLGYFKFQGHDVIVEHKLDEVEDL
Sequence of Arabidopsis thaliana NUDT1 (atNUDT1, atNUDX1) (Q9CA40 2-147): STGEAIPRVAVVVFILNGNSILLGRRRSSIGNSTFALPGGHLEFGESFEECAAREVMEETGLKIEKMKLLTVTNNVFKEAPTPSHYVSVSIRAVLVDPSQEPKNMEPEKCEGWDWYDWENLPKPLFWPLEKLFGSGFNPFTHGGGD

SMILES | Km [1] | hydrolysis by 1.5 nM purified enzyme, PPiLight assay, 75 μM substrate [2] | hydrolysis by 1.5 nM purified enzyme, PPiLight assay, 75 μM substrate [3] | hydrolysis by 1.5 nM purified enzyme, PPiLight assay, 75 μM substrate [4] | hydrolysis by purified zfMTH1, malachite green and PPiLight assays (zebrafish MTH1 (zfMTH1)) | Km [5]
COc1nc(N)nc2c1ncn2[C@@H]1O[C@H](COP(=O)(O)OP(=O)(O)OP(=O)(O)O)[C@@H](O)[C@H]1O [O6-methyl-GTP] | 236 ± 44 µM |  |  |  |  | 
COc1nc(N)nc2c1ncn2[C@H]1C[C@H](O)[C@@H](COP(=O)(O)OP(=O)(O)OP(=O)(O)O)O1 [O6-methyl-dGTP] |  | MTH1 homologues from all tested species but E. coli were found to catalyze the hydrolysis of O6-methyl-dGTP | MTH1 homologues from all tested species but E. coli were found to catalyze the hydrolysis of O6-methyl-dGTP | MTH1 homologues from all tested species but E. coli were found to catalyze the hydrolysis of O6-methyl-dGTP | The zfMTH1 enzyme displays considerable activity with O6-methyl-dGTP with a clear preference over dGTP | 15.6 ± 0.2 µM
